Data on 18 compounds can be found in patent publication US8008299B2, “Urotensin II receptor antagonists” (Janssen Pharmaceutica, N.V., priority 2007, dated 2011).

Structures are written as SMILES. pIC50, pKi: −log10 of the molar value.

What is called pKi is −log10 of the Ki, conventionally taken in molar units. A higher pKi goes with a low Ki. By pIC50 is commonly meant the IC50 on a negative log10 scale, so that one unit is a factor of ten.

The target in assay [1] is T1, UT receptors in HSMM (Human Skeletal Muscle Myoblasts) (Homo sapiens, UniProt Q9UKP6).
T1 sequence (Q9UKP6 1-389): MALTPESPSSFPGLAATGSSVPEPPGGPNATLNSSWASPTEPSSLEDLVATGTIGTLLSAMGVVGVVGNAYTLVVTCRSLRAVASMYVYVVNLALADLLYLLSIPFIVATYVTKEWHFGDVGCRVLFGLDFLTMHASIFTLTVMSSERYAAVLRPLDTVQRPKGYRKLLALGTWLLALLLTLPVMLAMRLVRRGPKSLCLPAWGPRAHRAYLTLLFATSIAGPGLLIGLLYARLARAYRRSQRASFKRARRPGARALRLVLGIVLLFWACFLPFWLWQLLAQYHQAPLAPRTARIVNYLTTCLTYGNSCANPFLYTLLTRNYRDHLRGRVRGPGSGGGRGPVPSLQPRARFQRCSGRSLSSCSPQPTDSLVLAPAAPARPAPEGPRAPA
The experiment in a line: Human Radioligand Binding Assay ((^125I)-U-II binding to intact HSMM).

The target of assay [2] is T2, Human UII (U-II receptor) in 6D9 human rhabdomyosarcoma cells (Homo sapiens, UniProt Q9UKP6).
T2 construct: 6D9: isolated by dilution subcloning of RMS13 cells, ATCC® Number: CRL-2061; host or cells: 6D9 human rhabdomyosarcoma cells (subclone of RMS13)
T2 sequence (Q9UKP6 1-389): T1 sequence (Q9UKP6 1-389)
The experiment in a line: Human UII Calcium Mobilization Assay. The following applies: 6D9 human rhabdomyosarcoma cells, FLIPR TETRA, average; read-out: Human UII Ca+ Mobilization Average IC50. It counts as cell-based.

Assay [3] has as its target T3, rat GPR14 (U-II receptor) (Rattus norvegicus, UniProt P49684).
T3 construct: expressed in transfected cells
T3 sequence (P49684 1-386): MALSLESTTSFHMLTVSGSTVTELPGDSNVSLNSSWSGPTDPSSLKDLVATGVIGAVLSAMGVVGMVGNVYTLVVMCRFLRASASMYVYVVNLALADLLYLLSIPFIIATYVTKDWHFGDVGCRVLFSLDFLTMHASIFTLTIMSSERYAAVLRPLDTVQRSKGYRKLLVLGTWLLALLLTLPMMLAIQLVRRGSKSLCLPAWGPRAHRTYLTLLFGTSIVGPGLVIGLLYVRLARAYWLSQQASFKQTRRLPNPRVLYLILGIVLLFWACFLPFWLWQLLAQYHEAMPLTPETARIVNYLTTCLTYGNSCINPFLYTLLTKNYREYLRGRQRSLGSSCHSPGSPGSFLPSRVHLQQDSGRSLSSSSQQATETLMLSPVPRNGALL
Nature of the assay: Rat UII Calcium Mobilization FLIPR Assay. Format: cell-based. The following applies: CHO cells transfected with rat GPR14; antagonist activity after 5 min incubation vs agonist (Ac)-CFWK(2-NaI)C-NH2 at 1 nM. Put shortly: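 CHO cells stably expressing rat U-II receptor, seeded 24 h before assay, were loaded with FLIPR calcium dye in HBSS/20 mM HEPES/0.1% BSA/2.5 mM probenecid, pH 7.4, for 1 h at 37° C. Calcium mobilization then read by FLIPR at 23° C.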

In turn, `CCN1CCN(c2cccc3c2CN([C@H](CCCSc2nc(C)cc(C)n2)c2ccc(OC)c(OC)c2)C3=O)CC1` [Cpd 27, 2-[(1R)-1-(3,4-dimethoxy-phenyl)-4-(4,6-dimethyl-pyrimidin-2-ylsulfanyl)-butyl]-4-(4-ethyl-piperazin-1-yl)-2,3-dihydro-isoindol-1-one] had a pKi in assay [1] of 7.72. In addition, the results for the pIC50 in assay [2] and in assay [3] were 6.97 and 8.52, respectively.
In assay [1], `CCN1CCN(c2cccc3c2CN([C@H](CCCN2Cc4ccccc4C2)c2ccc(OC)c(OC)c2)C3=O)CC1` [Cpd 100, 2-[(1R)-4-(1,3-dihydro-isoindol-2-yl)-1-(3,4-dimethoxy-phenyl)-butyl]-4-(4-ethyl-piperazin-1-yl)-2,3-dihydro-isoindol-1-one] showed a pKi of 7.62. For the same compound, the pIC50 in assay [2] was 6.50; in assay [3] it was 8.10.
For `CCN1CCN(c2cccc3c2CN([C@H](CCCN(Cc2ccncc2)Cc2ccncc2)c2ccc(OC)c(OC)c2)C3=O)CC1` [Cpd 63, 2-[(1R)-4-(bis-pyridin-4-ylmethyl-amino)-1-(3,4-dimethoxy-phenyl)-butyl]-4-(4-ethyl-piperazin-1-yl)-2,3-dihydro-isoindol-1-one], in that order: 8.10, 7.70 and 8.15.
In the case of `CCN1CCN(c2cccc3c2CN([C@H](CCCn2ccnc2C)c2ccc(OC)c(OC)c2)C3=O)CC1` [Cpd 103, 2-[(1R)-1-(3,4-dimethoxy-phenyl)-4-(2-methyl-imidazol-1-yl)-butyl]-4-(4-ethyl-piperazin-1-yl)-2,3-dihydro-isoindol-1-one], the pKi in assay [1] was 6.80. Further, the pIC50 is 5.85 in assay [2] and 6.85 in assay [3].
Turning to `CCN1CCN(c2cccc3c2CN([C@H](CCCNc2nccc(OC)n2)c2ccc(OC)c(OC)c2)C3=O)CC1` [Cpd 21, 2-[(1R)-1-(3,4-dimethoxy-phenyl)-4-(4-methoxy-pyrimidin-2-ylamino)-butyl]-4-(4-ethyl-piperazin-1-yl)-2,3-dihydro-isoindol-1-one], the pKi in assay [1] was 8.10. The results for the pIC50 in assay [2] and in assay [3] were 6.21 and 8.40, respectively.
Turning to `CCN1CCN(c2cccc3c2CN([C@H](CCCNS(=O)(=O)N(C)C)c2ccc(OC)c(OC)c2)C3=O)CC1` [Cpd 70, dimethylaminosulfonic acid {(4R)-4-(3,4-dimethoxy-phenyl)-4-[4-(4-ethyl-piperazin-1-yl)-1-oxo-1,3-dihydro-isoindol-2-yl]-butyl}-amide], in assay [1], the pKi was 7.27. For the same compound, the values for the pIC50 in assay [2] and in assay [3] were 7.01 and 8.10, respectively.
Compound `CCN1CCN(c2cccc3c2CN([C@H](CCCNc2nccc(C(F)(F)F)n2)c2ccc(OC)c(OC)c2)C3=O)CC1` [Cpd 22, 2-[(1R)-1-(3,4-dimethoxy-phenyl)-4-(4-trifluoromethyl-pyrimidin-2-ylamino)-butyl]-4-(4-ethyl-piperazin-1-yl)-2,3-dihydro-isoindol-1-one] gave a pKi in assay [1] of 7.89. Further, the pIC50 was 6.73 in assay [2] and 8.52 in assay [3].
For `CCN1CCN(c2cccc3c2CN([C@H](CCCNCc2ccc(F)cc2)c2ccc(OC)c(OC)c2)C3=O)CC1` [Cpd 91, 2-[(1R)-1-(3,4-dimethoxy-phenyl)-4-(4-fluoro-benzylamino)-butyl]-4-(4-ethyl-piperazin-1-yl)-2,3-dihydro-isoindol-1-one], in that order: 7.21, 6.97 and 8.52.
For `CCN1CCN(c2cccc3c2CN([C@H](CCCN(C)Cc2ccccc2)c2ccc(OC)c(OC)c2)C3=O)CC1` [Cpd 3, 2-[(1R)-4-(benzyl-methyl-amino)-1-(3,4-dimethoxy-phenyl)-butyl]-4-(4-ethyl-piperazin-1-yl)-2,3-dihydro-isoindol-1-one], in that order: 7.47, 7.15 and 8.40.
Take `COc1ccc([C@@H](CCCOc2ccccc2)N2Cc3c(cccc3N3CCN(Cc4ccccc4)CC3)C2=O)cc1OC` [Cpd 34, 4-(4-benzyl-piperazin-1-yl)-2-[(1R)-1-(3,4-dimethoxy-phenyl)-4-phenoxy-butyl]-2,3-dihydro-isoindol-1-one]: in assay [1], the pKi is 7.49. Moreover, the negative-log IC50 (pIC50) in assay [2] was 6.51; in assay [3], 6.98.
In the case of `CCN1CCN(c2cccc3c2CN([C@H](CCCNC(=O)c2ccnnc2)c2ccc(OC)c(OC)c2)C3=O)CC1` [Cpd 61, pyridazine-4-carboxylic acid {(4R)-4-(3,4-dimethoxy-phenyl)-4-[4-(4-ethyl-piperazin-1-yl)-1-oxo-1,3-dihydro-isoindol-2-yl]-butyl}-amide], the pKi in assay [1] was 7.54. Besides, the values for the pIC50 in assay [2] and in assay [3] were 6.07 and 7.16, respectively.
The corresponding values for `CCN1CCN(c2cccc3c2CN([C@H](CCCn2cncn2)c2ccc(OC)c(OC)c2)C3=O)CC1` [Cpd 25, 2-[(1R)-1-(3,4-dimethoxy-phenyl)-4-[1,2,4]triazol-1-yl-butyl]-4-(4-ethyl-piperazin-1-yl)-2,3-dihydro-isoindol-1-one] are 6.52, 5.68 and 6.84.
In the case of `CCN1CCN(c2cccc3c2CN([C@H](CCCn2ccnc2C(C)C)c2ccc(OC)c(OC)c2)C3=O)CC1` [Cpd 104, 2-[(1R)-1-(3,4-dimethoxy-phenyl)-4-(2-isopropyl-imidazol-1-yl)-butyl]-4-(4-ethyl-piperazin-1-yl)-2,3-dihydro-isoindol-1-one], the pKi in assay [1] was 7.34. Besides, the results for the pIC50 in assay [2] and in assay [3] were 6.69 and 7.80, respectively.
With `CCN1CCN(c2cccc3c2CN([C@H](CCCNc2ncccn2)c2ccc(OC)c(OC)c2)C3=O)CC1` [Cpd 48, 2-[(1R)-1-(3,4-dimethoxy-phenyl)-4-(pyrimidin-2-ylamino)-butyl]-4-(4-ethyl-piperazin-1-yl)-2,3-dihydro-isoindol-1-one], the pKi in assay [1] was 7.32. The results for the pIC50 in assay [2] and in assay [3] were 6.30 and 7.21, respectively.
`CCN1CCN(c2cccc3c2CN([C@H](CCCNc2cccc[n+]2[O-])c2ccc(OC)c(OC)c2)C3=O)CC1` [Cpd 93, 2-[(1R)-1-(3,4-dimethoxy-phenyl)-4-(1-oxy-pyridin-2-ylamino)-butyl]-4-(4-ethyl-piperazin-1-yl)-2,3-dihydro-isoindol-1-one] showed a pKi in assay [1] of 6.90. Also, the pIC50 in assay [2] is 6.26; in assay [3], 7.09.
The corresponding values for `COc1ccc([C@@H](CCCOc2ccccc2)N2Cc3c(cccc3N3CCNCC3)C2=O)cc1OC` [Cpd 37, 2-[(1R)-1-(3,4-dimethoxy-phenyl)-4-phenoxy-butyl]-4-piperazin-1-yl-2,3-dihydro-isoindol-1-one] are 7.30, 6.35 and 7.85.
In assay [1], `COc1ccc([C@@H](CCCN(C)c2ccccc2)N2Cc3c(cccc3N3CCNCC3)C2=O)cc1OC` [Cpd 33, 2-[(1R)-1-(3,4-dimethoxy-phenyl)-4-(methyl-phenyl-amino)-butyl]-4-piperazin-1-yl-2,3-dihydro-isoindol-1-one] had a pKi of 6.28. The pIC50 in assay [2] is 5.33; in assay [3], 6.51.
For `CCN1CCN(c2cccc3c2CN([C@H](CCCn2cc(C)nc2C)c2ccc(OC)c(OC)c2)C3=O)CC1` [Cpd 102, 2-[(1R)-1-(3,4-dimethoxy-phenyl)-4-(2,4-dimethyl-imidazol-1-yl)-butyl]-4-(4-ethyl-piperazin-1-yl)-2,3-dihydro-isoindol-1-one], in that order: less than 6.52, 5.89 and 7.03.
